Experimental findings from BindingDB's records for doi:10.7270/Q23T9FMP (The Scripps Research Institute Molecular Screening Center, 2007) are described below.

SMILES strings stand for the structures.

The target of this assay is Steroidogenic factor 1 (Homo sapiens, UniProt Q13285). Put plainly: activation of SF-1 LBD reporter – cell-based, CHO-K1, Gal4-SF-1 LBD, luciferase luminescence, dose response (AID 692).
Chain of Steroidogenic factor 1 (Q13285 whole entry, the tested form may be a part): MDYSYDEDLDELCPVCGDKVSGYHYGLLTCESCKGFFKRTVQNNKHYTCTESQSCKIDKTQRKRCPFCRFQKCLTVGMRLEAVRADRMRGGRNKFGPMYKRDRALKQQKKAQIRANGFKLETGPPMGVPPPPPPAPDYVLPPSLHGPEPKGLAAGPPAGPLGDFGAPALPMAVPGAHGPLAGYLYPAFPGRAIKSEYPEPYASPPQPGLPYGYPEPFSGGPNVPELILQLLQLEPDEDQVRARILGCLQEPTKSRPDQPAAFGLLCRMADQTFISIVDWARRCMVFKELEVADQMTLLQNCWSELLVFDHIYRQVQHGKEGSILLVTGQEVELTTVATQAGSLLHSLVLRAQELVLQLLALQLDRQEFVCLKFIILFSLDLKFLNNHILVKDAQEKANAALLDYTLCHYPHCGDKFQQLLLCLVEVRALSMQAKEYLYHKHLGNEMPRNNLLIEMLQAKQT
As for `CC(=O)Nc1ccc(-c2nc3c(C)cccc3[nH]2)cc1` [SMR000001134], the response was half-maximal at 1.46 µM (EC50).
Take `Cc1cc2n(n1)C(c1ccc(N(C)C)cc1)Nc1ccccc1-2` (stereo not drawn) [SMR000015202]: the EC50 (as a rule, the concentration at which the effect is half-maximal) is more than 11 µM.
Under `CC1(C)CC(=O)C(=CNc2ccccc2)C(=O)C1` [SMR000054233] stands 6.83 µM.
Under `O=c1[nH]c2ccccc2nc1-c1cccs1` [SMR000068248] stands 7.84 µM.
Under `CN(C)C(=O)CSc1nnc(C23CC4CC(CC(C4)C2)C3)o1` [SMR000077996] stands 6.66 µM; under `CCCCC1CCC(c2nc(-c3ccccn3)no2)CC1` (stereo not drawn) [SMR000105468], 0.543 µM.
Compound `CC1(C)CC(=O)C(=CNc2ccc3[nH]ncc3c2)C(=O)C1` [SMR000111453] displayed an EC50 of more than 11 µM.
Under `COCCn1c(C)cc(C(=O)COC(=O)C23CC4CC(CC(O)(C4)C2)C3)c1C` [[2-[1-(2-methoxyethyl)-2,5-dimethylpyrrol-3-yl]-2-oxoethyl] 3-hydroxyadamantane-1-carboxylate] stands 0.813 µM.
